Laboratory results as given in patent publication US9056832B2, “Pyridine compounds and the users thereof” (Purdue Pharma L.P., priority 2010, dated 2015).
Where two headings read alike, the source gives them in different places.

Biological target: human Nav1.7 (Homo sapiens (Human), UniProt Q15858)
Experiment: FLIPR or FLIPR TETRA sodium dye assay with KCl and test article pre-incubation
Assay type: cell-based
Conditions: read-out: Nav1.7 IC50 (μM) ± SEM
[1] = recombinant human Nav1.7 in HEK293 cells, CoroNa Green sodium dye, veratridine + scorpion venom

Chain of human Nav1.7 (Q15858 other isoform, or with tags, fused parts or gaps): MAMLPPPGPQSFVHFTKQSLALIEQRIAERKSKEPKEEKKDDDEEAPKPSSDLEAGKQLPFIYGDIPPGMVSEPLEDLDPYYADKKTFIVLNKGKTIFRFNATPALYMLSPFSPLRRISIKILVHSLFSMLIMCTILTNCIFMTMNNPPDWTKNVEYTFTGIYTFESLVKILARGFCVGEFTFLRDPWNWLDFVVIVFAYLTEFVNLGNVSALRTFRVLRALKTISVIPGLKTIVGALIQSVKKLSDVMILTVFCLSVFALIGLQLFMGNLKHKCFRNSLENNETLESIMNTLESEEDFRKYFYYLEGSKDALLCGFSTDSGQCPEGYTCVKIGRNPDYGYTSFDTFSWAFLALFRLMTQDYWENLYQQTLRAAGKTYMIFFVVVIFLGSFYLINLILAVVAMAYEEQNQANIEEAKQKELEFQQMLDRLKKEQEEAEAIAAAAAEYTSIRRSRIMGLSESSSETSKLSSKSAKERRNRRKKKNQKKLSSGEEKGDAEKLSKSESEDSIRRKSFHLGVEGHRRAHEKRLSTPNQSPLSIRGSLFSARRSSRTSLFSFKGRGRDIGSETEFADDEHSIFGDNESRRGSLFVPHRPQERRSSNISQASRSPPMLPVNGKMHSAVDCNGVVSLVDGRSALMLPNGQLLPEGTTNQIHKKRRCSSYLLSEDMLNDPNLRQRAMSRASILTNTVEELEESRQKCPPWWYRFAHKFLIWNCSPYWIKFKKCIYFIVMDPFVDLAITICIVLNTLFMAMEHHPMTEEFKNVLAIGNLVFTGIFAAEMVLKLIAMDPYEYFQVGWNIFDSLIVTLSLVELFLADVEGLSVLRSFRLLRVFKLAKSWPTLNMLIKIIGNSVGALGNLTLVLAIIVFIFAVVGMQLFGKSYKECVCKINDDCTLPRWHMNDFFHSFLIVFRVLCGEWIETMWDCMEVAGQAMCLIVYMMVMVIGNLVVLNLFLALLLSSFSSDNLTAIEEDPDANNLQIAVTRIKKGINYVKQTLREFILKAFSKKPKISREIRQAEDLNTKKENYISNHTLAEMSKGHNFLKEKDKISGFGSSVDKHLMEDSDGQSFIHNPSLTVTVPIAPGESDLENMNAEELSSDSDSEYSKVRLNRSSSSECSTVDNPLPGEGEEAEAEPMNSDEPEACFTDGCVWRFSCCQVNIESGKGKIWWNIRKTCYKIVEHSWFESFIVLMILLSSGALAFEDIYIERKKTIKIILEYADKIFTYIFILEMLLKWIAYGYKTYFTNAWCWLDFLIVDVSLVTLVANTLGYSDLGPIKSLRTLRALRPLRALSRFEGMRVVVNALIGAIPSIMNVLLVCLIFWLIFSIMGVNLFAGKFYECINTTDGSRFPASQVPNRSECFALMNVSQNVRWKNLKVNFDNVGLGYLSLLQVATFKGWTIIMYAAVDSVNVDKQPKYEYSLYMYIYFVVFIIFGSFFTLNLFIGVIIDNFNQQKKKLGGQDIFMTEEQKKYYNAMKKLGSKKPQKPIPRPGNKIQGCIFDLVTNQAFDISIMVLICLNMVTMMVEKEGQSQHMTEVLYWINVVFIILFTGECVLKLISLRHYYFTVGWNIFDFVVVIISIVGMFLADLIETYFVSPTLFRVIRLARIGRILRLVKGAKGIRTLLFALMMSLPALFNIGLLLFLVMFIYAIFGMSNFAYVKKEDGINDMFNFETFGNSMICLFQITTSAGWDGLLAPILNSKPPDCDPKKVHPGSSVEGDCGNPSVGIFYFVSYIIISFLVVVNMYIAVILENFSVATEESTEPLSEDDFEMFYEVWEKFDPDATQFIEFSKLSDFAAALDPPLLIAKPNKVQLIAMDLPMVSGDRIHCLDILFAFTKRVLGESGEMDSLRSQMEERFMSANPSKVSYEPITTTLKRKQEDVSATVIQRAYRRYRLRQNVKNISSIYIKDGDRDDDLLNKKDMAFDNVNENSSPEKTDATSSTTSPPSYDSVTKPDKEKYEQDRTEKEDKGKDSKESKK

Row | SMILES | IC50 [1] [µM] | IC50 [µM]
1 | NC(=O)c1cc([C@@H](O)CO)cc(-c2ccc(Oc3ccc(OC(F)(F)F)cc3)cc2)n1 [compound 161, 4-((R)-1,2-Dihydroxy-ethyl)-6-[4-(4-trifluoromethoxy-phenoxy)phenyl]-pyridine-2-carboxylic acid amide] | 1.38 ± 0.2 | 
2 | NC(=O)c1cc([C@H](O)CO)cc(-c2ccc(Oc3ccc(OC(F)(F)F)cc3)cc2)n1 [compound 159, 4-((S)-1,2-Dihydroxy-ethyl)-6-[4-(4-trifluoromethoxy-phenoxy)phenyl]-pyridine-2-carboxylic acid amide] | 0.3 ± 0.02 | 
3 | N#Cc1ccc(Oc2ccc(-c3cccc(CNCCN4CCNC4=O)n3)cc2)c(C(F)(F)F)c1 [compound 65, 4-(4-(6-(((2-(2-oxoimidazolidin-1-yl)ethyl)amino)methyl)pyridin-2-yl)phenoxy)-3-(trifluoromethyl) benzonitrile] | 0.12 ± 0.02 | 
4 | O=C1NCCN1CCNCc1cccc(-c2ccc(Oc3ncc(C(F)(F)F)cc3Cl)cc2)n1 [compound 66, 1-(2-(((6-(4-((3-chloro-5-(trifluoromethyl)pyridin-2-yl)oxy)phenyl)pyridin-2-yl)methyl)amino)ethyl) imidazolidin-2-one] |  | 0.13 ± 0.03
5 | NC(=O)c1cc(-c2ccc(Oc3ccc(F)cc3)cc2)cc(N(CCC(=O)O)c2ccccc2)n1 [compound 144, 3-({6-Carbamoyl-4-[4-(4-fluoro-phenoxy)-phenyl]-pyridin-2-yl}phenyl-amino)-propionic acid] | > 20 | 
6 | NC(=O)c1cc(NCc2ccncc2)cc(-c2ccc(Oc3ccc(F)cc3)cc2)n1 [compound 46, 6-(4-(4-fluorophenoxy)phenyl)-4-((pyridin-4-ylmethyl)amino) picolinamide] |  | 0.48 ± 0.07
7 | NC(=O)c1ccc(Oc2ccc(-c3cc([C@H](O)CO)cc(C(N)=O)n3)cc2)c(C(F)(F)F)c1 [compound 32, (S)-6-(4-(4-carbamoyl-2-(trifluoromethyl)phenoxy)phenyl)-4-(1,2-dihydroxyethyl) picolinamide] | > 20 | 
8 | NC(=O)c1cc(-c2ccc(Oc3ccc(OC(F)(F)F)cc3)cc2)cc([C@H](O)CO)n1 [compound 156, 6-((S)-1,2-Dihydroxy-ethyl)-4-[4-(4-trifluoromethoxy-phenoxy)phenyl]-pyridine-2-carboxylic acid amide] | 0.13 ± 0.02 | 
9 | OCC(O)c1cccc(-c2ccc(Oc3ccc(C(F)(F)F)cn3)cc2)n1 (stereo not shown) [compound 16, 1-(6-(4-((5-(trifluoromethyl)pyridin-2-yl)oxy)phenyl)pyridin-2-yl) ethane-1,2-diol] | 1.71 ± 0.24 | 
10 | CN(c1ccccc1)c1cc(C(N)=O)nc(-c2ccc(Oc3ccc(C#N)cc3)cc2)c1 [compound 147, 6-[4-(4-Cyano-phenoxy)-phenyl]-4-(methyl-phenyl-amino)-pyridine-2-carboxylic acid amide] | 1.6 ± 0.26 | 
11 | CN(c1ccccc1)c1cc(-c2ccc(Oc3ccc(C#N)cc3)cc2)cc(C(N)=O)n1 [compound 146, 4-[4-(4-Cyano-phenoxy)-phenyl]-6-(methyl-phenyl-amino)-pyridine2-carboxylic acid amide] | 0.09 ± 0.004 | 
12 | N#CCCN(c1ccccc1)c1cc(-c2ccc(Oc3ccc(F)cc3)cc2)cc(C(=O)O)n1 [compound 94, 6-((2-cyanoethyl) (phenyl)amino)-4-(4-(4-fluorophenoxy)phenyl)picolinic acid] | 2.17 ± 0.66 | 
13 | NC(=O)c1cc(N2CCN(C(N)=O)CC2)cc(-c2ccc(Oc3ccc(F)cc3)cc2)n1 [compound 76, 4-(2-carbamoyl-6-(4-(4-fluorophenoxy)phenyl)pyridin-4-yl) piperazine-1-carboxamide] | 0.53 ± 0.07 | 
14 | N#Cc1ccc(Oc2ccc(-c3cc([C@@H](O)CO)cc(C(N)=O)n3)cc2)cc1 [compound 38, (R)-6-(4-(4-cyanophenoxy)phenyl)-4-(1,2-dihydroxyethyl) picolinamide] | 0.35 ± 0.07 | 
15 | Cc1ccc(Oc2ccc(-c3cccc(C(O)CO)n3)cc2)cn1 (stereo not shown) [compound 17, 1-(6-(4-((6-methylpyridin-3-yl)oxy)phenyl)pyridin-2-yl)ethane-1,2-diol] | 2.77 ± 0.41 | 
16 | NC(=O)c1cc(NCC2CCNCC2)cc(-c2ccc(Oc3ccc(F)cc3)cc2)n1 [compound 57, 6-(4-(4-fluorophenoxy)phenyl)-4-((piperidin-4-ylmethyl)amino) picolinamide] |  | 0.83 ± 0.02
17 | OC[C@H](O)c1cc(NCCN2CCOCC2)cc(-c2ccc(Oc3ccc(F)cc3)cc2)n1 [compound 111] |  | 0.71 ± 0.13
18 | N#Cc1cc(CNCCN2CCNC2=O)cc(-c2ccc(Oc3ccc(F)cc3)cc2)n1 [compound 106, 6-(4-(4-fluorophenoxy)phenyl)-4-(((2-(2-oxoimidazolidin-1-yl)ethyl)amino)methyl) picolinonitrile] | 2.01 ± 0.44 | 
19 | C[C@@H](O)[C@H](O)c1cc(C(N)=O)nc(-c2ccc(Oc3ccc(F)cc3)cc2)c1 [compound 131, 4-((1R,2R)-1,2-dihydroxypropyl)-6-(4-(4-fluorophenoxy)phenyl)picolinamide] | 2.78 ± 0.46 | 
20 | OCC(O)c1cccc(-c2ccc(Oc3ccc(C(F)(F)F)cc3)cc2)n1 (stereo not shown) [compound 3, 1-(6-(4-(4-(trifluoromethyl)phenoxy)phenyl)pyridin-2-yl)ethane-1,2-diol] |  | 0.07 ± 0.01
21 | N#Cc1cc(Oc2ccc(-c3cccc(CNCCN4CCNC4=O)n3)cc2)ccc1C(F)(F)F [compound 70, 5-(4-(6-(((2-(2-oxoimidazolidin-1-yl)ethyl)amino)methyl)pyridin-2-yl)phenoxy)-2-(trifluoromethyl) benzonitrile] |  | 0.23 ± 0.08
22 | CS(=O)(=O)c1ccc(Oc2ccc(-c3cccc(CNCCN4CCNC4=O)n3)cc2)cc1 [compound 71, 1-(2-(((6-(4-(4-(methylsulfonyl)phenoxy)phenyl)pyridin-2-yl)methyl)amino)ethyl) imidazolidin-2-one] |  | 0.35 ± 0.05
23 | NC(=O)c1cc(C(=O)NCCN2CCCCC2)nc(-c2ccc(Oc3ccc(F)cc3)cc2)c1 [compound 81, 6-(4-(4-fluorophenoxy)phenyl)-N2-(2-(piperidin-1-yl)ethyl)pyridine-2,4-dicarboxamide] | 1.46 ± 0.43 | 
24 | NC(=O)c1cc([C@@H](O)CO)cc(-c2ccc(-c3ccc(F)cc3)cc2)n1 [compound 155, 4-((R)-1,2-Dihydroxy-ethyl)-6-(4′-fluoro-biphenyl-4-yl)pyridine-2-carboxylic acid amide] | 2.78 ± 0.61 | 
25 | Cc1ccc(Oc2ccc(-c3cccc(C(O)CO)n3)cc2)cn1 (stereo not shown) [compound 27, 1-(6-(4-((6-methylpyridin-3-yl)oxy)phenyl)pyridin-2-yl)ethane-1,2-diol] | > 20 | 
26 | N#Cc1cc(NCCCn2ccnc2)cc(-c2ccc(Oc3ccc(F)cc3)cc2)n1 [compound 110, 4-((3-(1H-imidazol)-1-yl)propyl)amino)-6-(4-(4-fluorophenoxy) phenylpicolinonitrile] |  | 0.62 ± 0.08
27 | NC(=O)c1cc([C@H](O)CO)cc(-c2ccc(Oc3cc(Cl)ccc3F)cc2)n1 [compound 39, (S)-6-(4-(5-chloro-2-fluorophenoxy)phenyl)-4-(1,2-dihydroxyethyl) picolinamide] | 0.13 ± 0.03 | 
28 | O=C1NCCN1CCNCc1cccc(-c2ccc(Oc3ccc(C(F)(F)F)cc3)cc2)n1 [compound 61, 1-(2-(((6-(4-(4-(trifluoromethyl)phenoxy)phenyl)pyridin-2-yl)methyl)amino)ethyl)imidazolidin-2-one] | 0.03 ± 0.01 | 
